Drawing on US20160199372A1, “IMIDAZOPYRIDAZINE KINASE INHIBITORS USEFUL TO TREATING A DISEASE OR DISORDER MEDIATED BY AAK1, SUCH AS ALZHEIMER'S DISEASE, BIPOLAR DISORDER, PAIN, SCHIZOPHRENIA” (Bristol-Myers Squibb Company, priority 2013, published 2016), this text covers IC50 and Response for 22 compounds.

T1 sequence (Q2M2I8 whole entry): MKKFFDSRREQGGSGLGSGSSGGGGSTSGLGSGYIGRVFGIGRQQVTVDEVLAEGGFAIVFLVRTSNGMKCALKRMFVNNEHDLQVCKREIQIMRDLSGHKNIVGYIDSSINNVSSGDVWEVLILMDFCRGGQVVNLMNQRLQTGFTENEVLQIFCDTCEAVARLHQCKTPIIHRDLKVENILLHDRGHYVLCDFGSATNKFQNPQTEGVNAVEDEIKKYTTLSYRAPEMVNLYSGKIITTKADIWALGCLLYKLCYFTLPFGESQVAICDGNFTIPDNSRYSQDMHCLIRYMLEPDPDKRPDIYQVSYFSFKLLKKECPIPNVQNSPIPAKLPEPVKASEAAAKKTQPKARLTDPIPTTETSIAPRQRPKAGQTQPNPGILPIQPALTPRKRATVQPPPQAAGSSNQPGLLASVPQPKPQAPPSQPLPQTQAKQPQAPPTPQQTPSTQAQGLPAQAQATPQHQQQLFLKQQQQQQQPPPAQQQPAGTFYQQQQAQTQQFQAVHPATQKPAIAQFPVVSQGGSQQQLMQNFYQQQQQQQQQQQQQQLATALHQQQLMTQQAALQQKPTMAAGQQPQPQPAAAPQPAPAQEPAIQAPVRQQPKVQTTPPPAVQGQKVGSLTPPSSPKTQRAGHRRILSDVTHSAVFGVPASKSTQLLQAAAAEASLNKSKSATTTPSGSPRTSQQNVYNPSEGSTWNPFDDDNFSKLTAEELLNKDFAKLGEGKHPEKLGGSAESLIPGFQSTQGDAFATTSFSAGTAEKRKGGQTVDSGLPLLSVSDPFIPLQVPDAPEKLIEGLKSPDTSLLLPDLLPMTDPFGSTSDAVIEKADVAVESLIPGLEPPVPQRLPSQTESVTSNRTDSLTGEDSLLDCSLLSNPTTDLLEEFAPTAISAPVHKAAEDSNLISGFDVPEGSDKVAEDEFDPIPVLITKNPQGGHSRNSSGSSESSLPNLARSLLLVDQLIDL

One assay concerns the target T1, GST-Xa-hAAK1 (Homo sapiens, UniProt Q2M2I8).
T1 construct: made in house
Briefly: AAK1 Kinase Assay. The settings on record: ATP 22 μM; GST-Xa-hAAK1 3.5 nM; 3 hours at room temperature; Caliper LabChip 3000. The class given is biochemical. An excerpt:
IC50 values were derived by non-linear regression analysis.
For `CC(C)c1nc(-c2cccc(NC(=O)c3cnc4c(Nc5ccccc5)cc(N[C@H]5CC[C@H](N)CC5)nn34)c2)no1` [Example 1, 6-(trans-4-Aminocyclohexylamino)-N-(3-(5-isopropyl-1,2,4-oxadiazol-3-yl)phenyl)-8-(phenylamino)imidazo[1,2-b]pyridazine-3-carboxamide], half-maximal inhibition (IC50) required 10 nM. Consider `CC(C)c1nnc(-c2cccc(NC(=O)c3cnc4c(Nc5ccccc5)cc(N[C@H]5CC[C@H](N)CC5)nn34)c2)s1` [Example 2, 6-(trans-4-Aminocyclohexylamino)-N-(3-(5-isopropyl-1,3,4-thiadiazol-2-yl)phenyl)-8-(phenylamino)imidazo[1,2-b]pyridazine-3-carboxamide], for which 11 nM corresponded to half-maximal inhibition (IC50). In the case of `CC(C)c1nc(-c2cccc(NC(=O)c3cnc4c(Nc5ccccc5)cc(N[C@H]5CC[C@H](N)CC5)nn34)c2)co1` [Example 3, 6-(trans-4-Aminocyclohexylamino)-N-(3-(2-isopropyloxazol-4-yl)phenyl)-8-(phenylamino)imidazo[1,2-b]pyridazine-3-carboxamide], half-maximal inhibition (IC50) required 94 nM. Still for that read-out and setting: under `CC(C)n1nnc(-c2cccc(NC(=O)c3cnc4c(Nc5ccccc5)cc(N[C@H]5CC[C@H](N)CC5)nn34)c2)n1` [Example 4, 6-(trans-4-Aminocyclohexylamino)-N-(3-(2-isopropyl-2H-tetrazol-5-yl)phenyl)-8-(phenylamino)imidazo[1,2-b]pyridazine-3-carboxamide] stands 5.1 nM. Same read-out and setting: then `Cc1nc(-c2cccc(NC(=O)c3cnc4c(Nc5ccccc5)cc(N[C@H]5CC[C@H](N)CC5)nn34)c2)co1` [Example 5, 6-(trans-4-Aminocyclohexylamino)-N-(3-(2-methyloxazol-4-yl)phenyl)-8-(phenylamino)imidazo[1,2-b]pyridazine-3-carboxamide], with 79 nM; and `N[C@H]1CC[C@H](Nc2cc(Nc3ccccc3)c3ncc(C(=O)Nc4cccc(-c5coc(-c6ccccc6)n5)c4)n3n2)CC1` [Example 6, 6-(trans-4-Aminocyclohexylamino)-8-(phenylamino)-N-(3-(2-phenyloxazol-4-yl)phenyl)imidazo[1,2-b]pyridazine-3-carboxamide], with 940 nM; and `Cc1nc(-c2cccc(NC(=O)c3cnc4c(Nc5ccccc5)cc(N[C@H]5CC[C@H](N)CC5)nn34)c2)cs1` [Example 7, 6-(trans-4-Aminocyclohexylamino)-N-(3-(2-methylthiazol-4-yl)phenyl)-8-(phenylamino)imidazo[1,2-b]pyridazine-3-carboxamide], with 114 nM. In the case of `CNc1cc(N[C@H]2CC[C@H](N)CC2)nn2c(C(=O)Nc3cccc(-c4nnc(C(C)C)s4)c3)cnc12` [Example 8, 6-(trans-4-Aminocyclohexylamino)-N-(3-(5-isopropyl-1,3,4-thiadiazol-2-yl)phenyl)-8-(methylamino)imidazo[1,2-b]pyridazine-3-carboxamide], the IC50 – broadly, the point on the concentration scale where inhibition reaches its midpoint – was found to be 8.9 nM. Same read-out and setting: then `CNc1cc(N[C@H]2CC[C@H](N)CC2)nn2c(C(=O)Nc3cccc(-c4nnn(C(C)C)n4)c3)cnc12` [Example 9, 6-(trans-4-Aminocyclohexylamino)-N-(3-(2-isopropyl-2H-tetrazol-5-yl)phenyl)-8-(methylamino)imidazo[1,2-b]pyridazine-3-carboxamide], with 8 nM; and `CNc1cc(N[C@H]2CC[C@H](N)CC2)nn2c(C(=O)Nc3cccc(-c4noc(C(C)C)n4)c3)cnc12` [Example 10, 6-(trans-4-Aminocyclohexylamino)-N-(3-(5-isopropyl-1,2,4-oxadiazol-3-yl)phenyl)-8-(methylamino)imidazo[1,2-b]pyridazine-3-carboxamide], with 16 nM. The same measure, in the same setting: under `CC(C)c1nc(-c2cccc(NC(=O)c3cnc4ccc(N[C@H]5CC[C@H](N)CC5)nn34)c2)no1` [Example 11, 6-(trans-4-Aminocyclohexylamino)-N-(3-(5-isopropyl-1,2,4-oxadiazol-3-yl)phenyl)imidazo[1,2-b]pyridazine-3-carboxamide] stands 27 nM; under `CC(C)c1nnc(-c2cccc(NC(=O)c3cnc4ccc(N[C@H]5CC[C@H](N)CC5)nn34)c2)s1` [Example 12, 6-(trans-4-Aminocyclohexylamino)-N-(3-(5-isopropyl-1,3,4-thiadiazol-2-yl)phenyl)imidazo[1,2-b]pyridazine-3-carboxamide], 9.1 nM; under `CC(C)n1nnc(-c2cccc(NC(=O)c3cnc4ccc(N[C@H]5CC[C@H](N)CC5)nn34)c2)n1` [Example 13, 6-(trans-4-Aminocyclohexylamino)-N-(3-(2-isopropyl-2H-tetrazol-5-yl)phenyl)imidazo[1,2-b]pyridazine-3-carboxamide], 12 nM.

As to `CC(C)c1nc(-c2cccc(NC(=O)c3cnc4ccc(N[C@H]5CC[C@H](N)CC5)nn34)c2)co1` [Example 14, 6-(trans-4-Aminocyclohexylamino)-N-(3-(2-isopropyloxazol-4-yl)phenyl)imidazo[1,2-b]pyridazine-3-carboxamide], the IC50 was found to be 158 nM.

As for `Cc1nc(-c2cccc(NC(=O)c3cnc4ccc(N[C@H]5CC[C@H](N)CC5)nn34)c2)co1` [Example 15, 6-(trans-4-Aminocyclohexylamino)-N-(3-(2-methyloxazol-4-yl)phenyl)imidazo[1,2-b]pyridazine-3-carboxamide], the IC50 came out at 342 nM. On the same count and under the same terms, under `N[C@H]1CC[C@H](Nc2ccc3ncc(C(=O)Nc4cccc(-c5coc(-c6ccccc6)n5)c4)n3n2)CC1` [Example 16, 6-(trans-4-Aminocyclohexylamino)-N-(3-(2-phenyloxazol-4-yl)phenyl)imidazo[1,2-b]pyridazine-3-carboxamide] stands 154 nM. For `N[C@H]1CC[C@H](Nc2cc(Nc3ccccc3)c3ncc(-c4ccsc4)n3n2)CC1` [Example 17, N^6-(trans-4-Aminocyclohexyl)-N^8-phenyl-3-(thiophen-3-yl)imidazo[1,2-b]pyridazine-6,8-diamine], inhibition was half-maximal at 10 nM (IC50). Same read-out and setting: then `CN(C)[C@H]1CC[C@H](Nc2cc(Nc3ccccc3)c3ncc(-c4ccsc4)n3n2)CC1` [Example 19, N^6-(trans-4-(Dimethylamino)cyclohexyl)-N^8-phenyl-3-(thiophen-3-yl)imidazo[1,2-b]pyridazine-6,8-diamine], with 12 nM; and `CNc1cc(N[C@H]2CC[C@H](N)CC2)nn2c(-c3ccsc3)cnc12` [Example 20, N^6-(trans-4-Aminocyclohexyl)-N^8-methyl-3-(thiophen-3-yl)imidazo[1,2-b]pyridazine-6,8-diamine], with 38 nM; and `N[C@H]1CC[C@H](Nc2cc(NC3CC3)c3ncc(-c4ccsc4)n3n2)CC1` [Example 21, N^6-(trans-4-Aminocyclohexyl)-N^8-cyclopropyl-3-(thiophen-3-yl)imidazo[1,2-b]pyridazine-6,8-diamine], with 40 nM.

With `COc1ccc(Nc2cc(N[C@H]3CC[C@H](N)CC3)nn3c(-c4ccsc4)cnc23)cc1` [Example 22, N^6-(trans-4-Aminocyclohexyl)-N^8-(4-methoxyphenyl)-3-(thiophen-3-yl)imidazo[1,2-b]pyridazine-6,8-diamine], the IC50 was found to be 9 nM.

In the next assay the test system is mice. Description: formalin paw test (pain response). The class given is in vivo, mouse. The conditions noted are these: 60 mg/kg sc; administered 30 minutes prior to formalin injection; % response relative to gabapentin 200 mg/kg. On the procedure: AAK1 homozygous (−/−) and their wild-type (+/+) littermates were tested using the formalin paw test in order to assess their acute and tonic nociceptive responses. For these tests, Automatic Nociception Analyzers (purchased from the Ozaki lab at University of California, San Diego) were used. A metal band was placed around the left hind paw of each mouse 30 minutes prior to testing. After the 30-minute acclimation period, 20 μl of 5% formalin is subcutaneously injected in the dorsal surface of the left hind paw. Mice were individually housed in cylindrical chambers for 45 minutes. Fresh 5% formalin solution was prepared by diluting formaldehyde (Formalde-fresh 20%, Fisher Scientific, Fair Lawn, N.J.) with distilled water. Investigatory compounds were administered 30 minutes prior to formalin injection.
A computer recorded flinches per minute, total flinches for phase I (acute phase=first 8 minutes), and total flinches for phase II (tonic phase=time between minutes 20-40 or 10-60 minutes for drug studies) through an electromagnetic field. See Yaksh T L, Ozaki G, McCumber D, Rathbun M, Svensson C, Malkmus S, Yaksh M C. An automated flinch detecting system for use in the formalin nociceptive bioassay. J Appl Physiol., 2001; 90:2386-402.
The same test was used to confirm that the administration of an AAK1 inhibitor can also affect pain response. […]
In turn, `CC(C)c1nc(-c2cccc(NC(=O)c3cnc4c(Nc5ccccc5)cc(N[C@H]5CC[C@H](N)CC5)nn34)c2)no1` [Example 1, 6-(trans-4-Aminocyclohexylamino)-N-(3-(5-isopropyl-1,2,4-oxadiazol-3-yl)phenyl)-8-(phenylamino)imidazo[1,2-b]pyridazine-3-carboxamide] yielded a Response of 59%.

The assay is the same for the next values; noted with them: 200 mg/kg sc; administered 30 minutes prior to formalin injection; % response relative to gabapentin 200 mg/kg.
`NCC1(CC(=O)O)CCCCC1` [Gabapentin, reference compound] displayed a Response of 73%.
